The values below come from ChEMBL document CHEMBL4052827, “Discovery of Tetrahydroisoquinoline-Containing CXCR4 Antagonists with Improved in Vitro ADMET Properties” (J Med Chem, 2018).

Usually amount remaining stands for the share of the starting amount still present when the sample was taken. In general, EC50 refers to the midpoint of the concentration-response curve. One may read the IC50 as the point on the concentration scale where inhibition reaches its midpoint. What is called Papp is the rate of passage across a membrane or cell layer, normalised by area and donor concentration. Lower therefore signals poor permeation.

Data set [1] in a line: Metabolic stability in mouse liver microsomes assessed as parent compound remaining at 0.5 uM after 10 mins in presence of NADPH by LC-MS/MS analysis.
Data set [2] can be described thus: Metabolic stability in human liver microsomes assessed as parent compound remaining at 0.5 uM after 10 mins in presence of NADPH by LC-MS/MS analysis.
The target in data set [3] is T1, C-X-C chemokine receptor type 4 (Homo sapiens, UniProt P61073). Description: Agonist activity at CXCR4 in human CCRF-CEM cells assessed as induction of Ca2+ flux measured for 90 secs by calcium dye-based fluorescence assay. It is filed as functional, cell-based.
T1 sequence (P61073 whole entry): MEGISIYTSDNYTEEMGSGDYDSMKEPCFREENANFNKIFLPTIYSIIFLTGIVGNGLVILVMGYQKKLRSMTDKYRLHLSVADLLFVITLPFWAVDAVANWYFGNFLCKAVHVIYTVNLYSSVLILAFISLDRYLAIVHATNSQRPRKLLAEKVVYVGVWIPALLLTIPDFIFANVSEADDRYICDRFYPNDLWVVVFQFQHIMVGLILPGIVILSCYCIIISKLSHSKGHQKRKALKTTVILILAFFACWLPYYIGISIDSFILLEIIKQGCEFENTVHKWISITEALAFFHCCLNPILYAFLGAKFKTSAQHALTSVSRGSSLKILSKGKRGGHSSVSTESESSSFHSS
Data set [4] is described as follows: Agonist activity at mAChR in human CCRF-CEM cells assessed as induction of Ca2+ flux measured for 90 secs by calcium dye-based fluorescence assay. It counts as cell-based. Background: Calcium flux is commonly read through the fluorescence of an indicator in the cells.
The next data set deals with Cytochrome P450 2D6 (Homo sapiens, UniProt P10635). In words: Inhibition of recombinant human CYP2D6 expressed in microsomes of insect cells using AMMC as substrate preincubated for 30 mins followed by NADP addition after 45 mins by fluorescence analysis.
Sequence of Cytochrome P450 2D6 (P10635 whole entry): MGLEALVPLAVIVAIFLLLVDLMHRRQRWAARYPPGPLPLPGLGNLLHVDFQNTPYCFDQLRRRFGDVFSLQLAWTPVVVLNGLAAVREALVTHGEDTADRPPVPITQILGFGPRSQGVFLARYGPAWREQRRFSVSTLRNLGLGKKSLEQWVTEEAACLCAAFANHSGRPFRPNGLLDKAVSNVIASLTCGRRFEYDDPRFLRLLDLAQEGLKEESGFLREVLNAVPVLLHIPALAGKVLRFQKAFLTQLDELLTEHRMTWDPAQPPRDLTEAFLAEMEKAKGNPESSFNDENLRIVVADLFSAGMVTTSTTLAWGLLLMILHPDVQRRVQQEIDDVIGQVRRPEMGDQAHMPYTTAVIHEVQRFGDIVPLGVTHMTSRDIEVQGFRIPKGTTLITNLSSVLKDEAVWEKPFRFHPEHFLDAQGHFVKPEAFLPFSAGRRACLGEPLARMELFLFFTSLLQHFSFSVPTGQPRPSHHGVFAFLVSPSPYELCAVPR
Data set [5] in a line: Antagonist activity at mAChR in human CCRF-CEM cells assessed as decrease in acetylacholine-stimulated Ca2+ flux preincubated for 25 mins followed by acetylacholine addition measured for 90 secs by calcium dye-based fluorescence assay. It counts as cell-based.
The nature of data set [6]: Permeability of the compound at pH 5.5 at 100 uM after 4 hrs by PAMPA. A general note: The PAMPA barrier holds no transporters, so it reflects passive diffusion.
For data set [7], the target named is T1, C-X-C chemokine receptor type 4. In words: Antagonist activity at human CXCR4 in CCRF-CEM cells assessed as decrease in SDF-1alpha stimulated Ca2+ flux preincubated for 25 mins followed by SDF-1alpha addition measured for 90 secs by calcium dye-based fluorescence assay. It is filed as functional, cell-based.

In the case of `NCc1cccc(CN(C[C@H]2Cc3ccccc3CN2)[C@H]2CCCc3cccnc32)c1`, the fraction remaining at 10 min, 0.5 µM in data set [1] was found to be 89.2%; in data set [2], 97.3%. Further, the EC50 in data set [3] and in data set [4] was over 30 µM throughout. The IC50 turned out to be 0.032 µM at Cytochrome P450 2D6 and 25.7 µM in data set [5].
As for `NCc1ccc(CN(C[C@H]2Cc3ccccc3CN2)[C@H]2CCCc3cccnc32)cc1`, the EC50 in data set [4] was over 30 µM. Further, the 50% inhibitory concentration (IC50) in data set [5] is over 33.3 µM.
On to `c1ccc2c(c1)CN[C@@H](CN(CCCCNCc1ccncc1)[C@H]1CCCc3cccnc31)C2`, for which the figures for the amount remaining at 10 min, 0.5 µM in data set [1] and in data set [2] were 6.44% and 1.92%, respectively. The compound also returned an apparent permeability (Papp) at 4 h, 100 µM in data set [6] of 0.65 ×10⁻⁶ cm/s. For the same compound, the EC50 in data set [3] and in data set [4] was over 30 µM each time. The concentration for half-maximal inhibition (IC50) in data set [7] is 0.0227 µM; on Cytochrome P450 2D6, 0.145 µM; in data set [5], over 33.3 µM.
Take `c1ccc2c(c1)CN[C@@H](CN(CCCCNCC1CCSCC1)[C@H]1CCCc3cccnc31)C2`: the fraction remaining at 10 min, 0.5 µM was found to be 2.82% in data set [1] and 49.4% in data set [2]. In addition, the EC50 in data set [3] and in data set [4] was over 30 µM each time. Further, the IC50 in data set [7] is 0.0696 µM; on Cytochrome P450 2D6, 0.629 µM; in data set [5], over 16.7 µM.
Turning to `FC1(F)CCC(NCCCCN(C[C@H]2Cc3ccccc3CN2)[C@H]2CCCc3cccnc32)CC1`, the EC50 in data set [3] and in data set [4] was over 30 µM throughout. Besides, the figures for the IC50 in data set [7] and in data set [5] were 0.00371 µM and 28.2 µM, respectively.
As to `C(=C\CN(C[C@H]1Cc2ccccc2CN1)[C@H]1CCCc2cccnc21)/CNCc1ccncc1`, the EC50 in data set [4] was over 30 µM. In data set [5], the IC50 is over 16.7 µM.
On to `c1ccc(CN(CCCCN(C[C@H]2Cc3ccccc3CN2)[C@H]2CCCc3cccnc32)Cc2ccccc2)cc1`, for which the fraction remaining at 10 min, 0.5 µM in data set [1] was determined as 0.298%; in data set [2], 4.84%. Also, the Papp at 4 h, 100 µM in data set [6] stood at 3.9 ×10⁻⁶ cm/s. In addition, the concentration for a half-maximal effect (EC50) in data set [3] and in data set [4] was over 30 µM throughout. Besides, the IC50 is over 16.7 µM in data set [7], 0.494 µM on Cytochrome P450 2D6 and over 33.3 µM in data set [5].
For the compound `CC(C)(CCN(C[C@H]1Cc2ccccc2CN1)[C@H]1CCCc2cccnc21)CNCC1CCOCC1`, the results for the amount remaining at 10 min, 0.5 µM in data set [1] and in data set [2] were 60.3% and 46.1%, respectively. The compound also displayed a Papp at 4 h, 100 µM in data set [6] of 6.2 ×10⁻⁶ cm/s. Also, the EC50 in data set [3] and in data set [4] was over 30 µM in each case. The IC50 in data set [7] turned out to be 0.0438 µM; at Cytochrome P450 2D6, 1.75 µM; in data set [5], 13 µM.
In the case of `c1ccc(CNCc2ccc(CN(C[C@H]3Cc4ccccc4CN3)[C@H]3CCCc4cccnc43)cc2)nc1`, the share remaining at 10 min, 0.5 µM in data set [1] worked out at 11.6%; in data set [2], 1.77%. Also, the Papp at 4 h, 100 µM in data set [6] came out at 1.6 ×10⁻⁶ cm/s. In addition, the EC50 in data set [3] and in data set [4] was over 30 µM throughout. Moreover, the half-maximal inhibitory concentration (IC50) was found to be 0.377 µM at Cytochrome P450 2D6 and 6.94 µM in data set [5].
For `c1ccc(CNCCCCN(C[C@H]2Cc3ccccc3CN2)[C@H]2CCCc3cccnc32)nc1`, the EC50 in data set [4] is over 30 µM. In addition, the IC50 in data set [5] was over 30 µM.
On to `c1ccc2c(c1)CN[C@@H](CN(CCCCNC1CCCCC1)[C@H]1CCCc3cccnc31)C2`, for which the amount remaining at 10 min, 0.5 µM was found to be 43.8% in data set [1] and 46.1% in data set [2]. In data set [6], this compound gave an apparent permeability (Papp) at 4 h, 100 µM of 1.45 ×10⁻⁶ cm/s. For the same compound, the EC50 in data set [3] and in data set [4] was over 30 µM throughout. Moreover, the IC50 was 0.0752 µM in data set [7], 0.524 µM at Cytochrome P450 2D6 and over 33.3 µM in data set [5].
In the case of `c1ccc(CNCCCCN(C[C@H]2Cc3ccccc3CN2)[C@H]2CCCc3cccnc32)cc1`, the amount remaining at 10 min, 0.5 µM in data set [1] was 31.2%; in data set [2], 71.7%. In addition, the EC50 in data set [3] and in data set [4] was over 30 µM throughout. In addition, the values for the IC50 (in data set [7]; on Cytochrome P450 2D6; in data set [5]) were 0.0201 µM, 0.141 µM and 3.43 µM, respectively.
As for `c1cncc(CNCc2ccc(CN(C[C@H]3Cc4ccccc4CN3)[C@H]3CCCc4cccnc43)cc2)c1`, in data set [4], the EC50 was over 30 µM. In addition, the IC50 in data set [5] came out at 21.4 µM.
For the compound `CC1(C)CCC(NCc2ccc(CN(C[C@H]3Cc4ccccc4CN3)[C@H]3CCCc4cccnc43)cc2)CC1`, the share remaining at 10 min, 0.5 µM amounted to 23.2% in data set [1] and 14.9% in data set [2]. Further, the EC50 in data set [3] and in data set [4] was over 30 µM in each case. The IC50 on Cytochrome P450 2D6 was determined as 0.258 µM; in data set [5] it was 8.76 µM.
For `c1ccc2c(c1)CN[C@@H](CN(Cc1ccc(CNCC3CCOCC3)cc1)[C@H]1CCCc3cccnc31)C2`, in data set [4], the EC50 is over 30 µM. Also, the IC50 in data set [5] is over 16.7 µM.
With `c1cncc(CNCCCCN(C[C@H]2Cc3ccccc3CN2)[C@H]2CCCc3cccnc32)c1`, the share remaining at 10 min, 0.5 µM was determined as 10.2% in data set [1] and 21.4% in data set [2]. Moreover, the EC50 in data set [3] and in data set [4] was over 30 µM in each case. Besides, the IC50 in data set [7] turned out to be 0.0153 µM; on Cytochrome P450 2D6, 0.217 µM; in data set [5] it was 19.9 µM.
For `c1ccc2c(c1)CN[C@@H](CN(CCCCNC1CCOCC1)[C@H]1CCCc3cccnc31)C2`, the values for the amount remaining at 10 min, 0.5 µM in data set [1] and in data set [2] were 55.8% and 53%, respectively. Moreover, the EC50 in data set [3] and in data set [4] was over 30 µM each time. Besides, the IC50 was 0.0294 µM in data set [7], 0.657 µM on Cytochrome P450 2D6 and over 33.3 µM in data set [5].
Turning to `c1ccc2c(c1)CN[C@@H](CN(CCCCNCC1CCNCC1)[C@H]1CCCc3cccnc31)C2`, the share remaining at 10 min, 0.5 µM was found to be 37.9% in data set [1] and 84.6% in data set [2]. The EC50 in data set [3] and in data set [4] was over 30 µM each time. Moreover, the IC50 in data set [7] is 0.0365 µM; on Cytochrome P450 2D6 it was 2.53 µM; in data set [5], over 16.7 µM.
As for `FC1(F)CCC(CNCCCCN(C[C@H]2Cc3ccccc3CN2)[C@H]2CCCc3cccnc32)CC1`, the EC50 in data set [3] and in data set [4] was over 30 µM in each case. Also, the IC50 in data set [7] is 0.168 µM; in data set [5], over 16.7 µM.
In the case of `O=S1(=O)CCC(CNCCCCN(C[C@H]2Cc3ccccc3CN2)[C@H]2CCCc3cccnc32)CC1`, the share remaining at 10 min, 0.5 µM turned out to be 39.3% in data set [1] and 74% in data set [2]. The EC50 in data set [3] and in data set [4] was over 30 µM throughout. Besides, the IC50 in data set [7] was 0.017 µM; at Cytochrome P450 2D6, 1.17 µM; in data set [5] it was over 16.7 µM.
With `O=S1(=O)CCC(NCCCCN(C[C@H]2Cc3ccccc3CN2)[C@H]2CCCc3cccnc32)CC1`, the figures for the share remaining at 10 min, 0.5 µM in data set [1] and in data set [2] were 17.6% and 11.7%, respectively. Moreover, the concentration giving a half-maximal response (EC50) in data set [3] and in data set [4] was over 30 µM throughout. The figures for the IC50 (in data set [7]; on Cytochrome P450 2D6; in data set [5]) were 0.0455 µM, 0.853 µM and over 33.3 µM, respectively.
On to `c1ccc2c(c1)CN[C@@H](CN(CCCCNCC1CCOCC1)[C@H]1CCCc3cccnc31)C2`, for which the amount remaining at 10 min, 0.5 µM worked out at 48.5% in data set [1] and 57.6% in data set [2]. This compound also returned a Papp at 4 h, 100 µM in data set [6] of 0.6 ×10⁻⁶ cm/s. Further, the EC50 in data set [3] and in data set [4] was over 30 µM each time. The 50% inhibitory concentration (IC50) in data set [7] was 0.0529 µM; on Cytochrome P450 2D6, 2.72 µM; in data set [5] it was over 33.3 µM.
